In assay [1] the target is T1, FXR ligand-binding domain (Homo sapiens, UniProt Q96RI1).
T1 sequence (Q96RI1 262-486 limits assumed): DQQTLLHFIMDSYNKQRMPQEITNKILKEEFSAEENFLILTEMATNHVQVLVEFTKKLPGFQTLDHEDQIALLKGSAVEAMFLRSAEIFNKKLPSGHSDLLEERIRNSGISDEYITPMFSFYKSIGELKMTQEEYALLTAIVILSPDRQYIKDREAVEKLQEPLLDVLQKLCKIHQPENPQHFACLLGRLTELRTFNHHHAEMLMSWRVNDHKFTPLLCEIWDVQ
In words: FRET-based coactivator binding assay (SRC-1 peptide recruitment). It is filed as biochemical. The source says: To determine if the compounds identified as ligands could promote the association of FXR with co-activators in vitro, a fluorescence resonance energy transfer (FRET)-based coactivator binding assay was employed (see, for example, Makishima et al. (1999), supra, Urizar et al. (2002). A natural product that lowers cholesterol as an antagonist ligand for FXR. Science. 296(5573), 1703-6). This assay relies on an agonist-induced interaction between the nuclear receptor and its coactivator bringing two fluorogenic partners together resulting in the nuclear receptor ligand-dependent FRET.

Assay [2] deals with FXR target genes SHP, MRP-2, BSEP and PLTP. Description: Northern blot of FXR target genes in HEPG2-FXR cells. It is filed as cell-based. The note with it: for induction of FXR target genes, in words: SHP, MRP-2, BSEP, PLTP; for concentration for maximal activation of FXR target genes: overnight treatment. The procedure:
(§1) HepG2 or HT29-derived cell lines were typically cultured in medium containing superstripped FBS for 24 hr before the addition of a ligand or DMSO (vehicle) for an additional 24-48 hr. Total RNA was isolated using TRIzol reagent and was resolved (10 μg/lane) on a 1% agarose, 2.2 M formaldehyde gel, transferred to a nylon membrane (Hybond N^+; Amersham Biosciences, Inc.), and cross-linked to the membrane with UV light.
(§2) cDNA probes were radiolabeled with [α-^32P]dCTP using the highprime labeling kit (Amersham Biosciences, Inc.). Membranes were hybridized using the QuikHyb hybridization solution (Stratagene, La Jolla, Calif.) according to the manufacturer's protocol. Blots were normalized for variations of RNA loading by hybridization to a control probe, either, 18 S ribosomal cDNA, or the ribosomal protein 36B4. The RNA levels were quantitated using a PhosphorImager (ImageQuant software; Molecular Dynamics, Inc., Sunnyvale, Calif.) in addition to being exposed to X-ray film.
Total RNA was isolated and the expression of the FXR target genes SHP, MRP-2, BSEP and PLTP was measured by Northern blot analysis. […]

In the next assay the target is T2, FXR (Homo sapiens, UniProt Q96RI1).
T2 construct: using a full length FXR on a natural response element; expressed in transfected cells
T2 sequence (Q96RI1 1-486): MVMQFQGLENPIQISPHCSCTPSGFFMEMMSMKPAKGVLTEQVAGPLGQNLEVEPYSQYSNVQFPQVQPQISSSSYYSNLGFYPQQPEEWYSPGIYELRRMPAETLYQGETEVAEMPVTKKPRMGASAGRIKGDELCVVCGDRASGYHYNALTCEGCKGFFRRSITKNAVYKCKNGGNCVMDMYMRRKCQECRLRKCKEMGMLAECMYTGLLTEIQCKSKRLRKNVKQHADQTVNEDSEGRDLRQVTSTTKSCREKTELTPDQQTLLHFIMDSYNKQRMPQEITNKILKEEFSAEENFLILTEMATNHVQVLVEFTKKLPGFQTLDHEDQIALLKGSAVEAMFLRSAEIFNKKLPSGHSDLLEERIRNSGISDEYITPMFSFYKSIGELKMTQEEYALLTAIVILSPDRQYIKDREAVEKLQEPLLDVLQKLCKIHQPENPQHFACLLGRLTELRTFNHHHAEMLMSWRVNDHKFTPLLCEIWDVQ
Description: cell-based FXR transcription assay, FXR responsive promoter linked to luciferase reporter. The note with it: for RE^a: cell-based FXR reporter assay, footnote a not given; for FXR activation, in words: cell-based reporter assay, SAR discussion. The method, boiled down: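 Cells co-transfected with full-length FXR and a luciferase reporter driven by a natural response element on a minimal promoter. Compound exposure ≈10 μM for 18 h before washing and luciferase read-out, in 384-well format, with CDCA as reference activator. EC50 derived from transcriptional activity.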
In general terms: In a reporter assay the amount or activity of a reporter protein is the signal.

The subject of assay [3] is IBABP mRNA in HT29-FXRFL cells. Description: Northern blot of IBABP mRNA in HT29 stable cell lines. It is filed as cell-based, Human. The note with it: for concentration for maximal induction of IBABP mRNA: overnight treatment. On the procedure: as §1, §2
Human colon cells HT29 (FXR null until differentiated) were infected with retroviral vectors that expressed either FXR constructs and the puromycin-resistant gene or the puromycin-resistant gene alone. Puromycin resistant cells were isolated and pooled cell populations were propagated that harbored either the vector alone (HT29-BABE), overexpressed FXR full length (HT29-FXRFL), a non-functional FXR truncated at the AF2 region (HT29-FXR-AF2), or a constitutively active FXR that has the VP16 activation domain fused N-terminal of the protein (HT29-VP16-FXR). Confirmation of the successful establishment of the different stable cell lines was established via northern blot analysis of FXR message levels in the cells.
These observations verify the usefulness of this colon cell model system for studying the induction of FXR target genes.
The ability of the novel compounds identified herein to induce IBABP gene expression in this cell system was also examined. Total RNA from HT29 stable cells treated overnight with fexaramine, fexarine and fexarene was probed for IBABP gene expression.

Assay [4] concerns FXR (IBABP, PLTP and MRP-2 promoters). In words: transient transfection cell-based assay with natural promoters of FXR targets (IBABP, PLTP, MRP-2). The source says: For this study, the following gene promoters were used: intestinal bile acid binding protein (IBABP; see, for example, Grober et al. (1999). Identification of a bile acid-responsive element in the human ileal bile acid-binding protein gene. Involvement of the farnesoid X receptor/9-cis-retinoic acid receptor heterodimer. J Biol Chem. 274(42), 29749-54), phospholipid transfer protein (PLTP) (Urizar et al (2000). The farnesoid X-activated receptor mediates bile acid activation of phospholipid transfer protein gene expression. J Biol Chem. 275(50), 39313-7) and multidrug resistance related protein 2 (MRP-2) (Kast et al. (2002), supra), which are all well characterized targets of FXR. The natural promoters of both the IBABP and PLTP genes contain one copy of an inverted repeat with a one base spacing (IR-1) while MRP-2 contains an ER-8 element. […] The most robust activation (28-fold) was seen on the IBABP promoter. Less robust (2-3 fold) but specific activation was observed on the PLTP and MRP-2 promoters.

The mark [5] stands for this setting: HT29-BABE or HT29-FXR-AF2 cell lines.

What is called EC50 is the concentration at which the effect is half-maximal. A higher EC50 goes with weaker potency.

Entries after “also recorded” stand apart in the source; their conditions may differ.

`COC(=O)C=Cc1cccc(N(Cc2ccc(C=Cc3ccccc3)cc2)C(=O)C2CCCCC2)c1` [Compound 121]: the half-maximal effective concentration (EC50) in assay [1] is around 255 nM. Moreover, in assay [2], the “induction of FXR target genes, in words” value is “strong induction” and the “concentration for maximal activation of FXR target genes” value (from here on “concentration for maximal activation”) came to 10 µM. Also, on FXR, the “RE^a” value stood at 1.55 and the “FXR activation, in words” value was “excellent activity; also recorded: among the most active”. The “induction of IBABP mRNA, in words” value in assay [3] (setting [5]) was “No induction”. In assay [3] (HT29-FXRFL cells), the “induction of IBABP mRNA, in words” value was “induced expression of the IBABP mRNA” and the “concentration for maximal induction of IBABP mRNA” value (“concentration … of IBABP mRNA” for short) was found to be 1 µM. For the same compound, in assay [4], the “concentration of maximum efficacy” value was 1 µM.

As for `COC(=O)/C=C/c1cccc(N(Cc2ccc(-c3ccc4c(c3)OCO4)cc2)C(=O)C2CCCCC2)c1` [Compound 244], in assay [1], the EC50 worked out at 222 nM. In addition, in assay [2], the “induction of FXR target genes, in words” value was “strong induction” and the “concentration for maximal activation” value was 10 µM. For the same compound, at FXR, the “RE^a” value is on record as 1.90 and the “FXR activation, in words” value was “excellent activity”. The “induction of IBABP mRNA, in words” value in assay [3] (setting [5]) was “No induction”. Moreover, in assay [3] (HT29-FXRFL cells), the “induction of IBABP mRNA, in words” value is reported as “induced expression of the IBABP mRNA” and the “concentration … of IBABP mRNA” value turned out to be 1 µM. Also, the “concentration of maximum efficacy” value in assay [4] amounted to 1 µM.

`COC(=O)/C=C/c1cccc(N(Cc2ccc(-c3ccc(N(C)C)cc3)cc2)C(=O)C2CCCCC2)c1` [Compound 259] displayed a 50% effective concentration (EC50) in assay [1] of 255 nM. For the same compound, the “induction of FXR target genes, in words” value in assay [2] (listed as fexaramine) was “most effective inducer of target genes; also recorded: matched GW4064 induced activation of the BSEP and MRP-2 genes”. For the same compound, the “concentration for maximal activation” value in assay [2] is 10 µM. In addition, at FXR, the “RE^a” value came to 1.72 and the “FXR activation, in words” value was “excellent activity”. Moreover, the “induction of IBABP mRNA, in words” value in assay [3] (setting [5]) is listed as “No induction”. Moreover, in assay [3] (HT29-FXRFL cells), the “induction of IBABP mRNA, in words” value was “induced expression of the IBABP mRNA” and the “concentration … of IBABP mRNA” value was determined as 1 µM. For the same compound, the “concentration of maximum efficacy” value in assay [4] stood at 1 µM.

The values above are taken from patent US7671085B2, “Non-steroidal farnesoid X receptor modulators and methods for the use thereof” (The Salk Institute for Biological Studies, priority 2002, dated 2010).
